Measurements as given in patent publication US20240309090A1, “MODULATION OF ANDROGEN SIGNALING TO INNATE IMMUNE KILLING OF PROSTATE CANCER” (Brown University, priority 2023, published 2024).
Entries after “also recorded” stand apart in the source; their conditions may differ.

Legend:
22Rv1 cell line = assay: Flow cytometry of HLA-E / PD-L1 surface expression on 22Rv1; assay type: cell-based; settings: for HLA-E surface expression, mean fluorescence intensity (MFI): 22Rv1, enza 15 μM, daro 20 μM, 48 h; for surface levels of HLA-E / surface levels of PD-L1: Example 2, 22Rv1
Protocol: (§1) The effect of ARi on the NKG2A ligand, HLA-E, was investigated by flow cytometry on PCa cells treated with enza and daro.
(§2) PCa cells were plated at a density of 3×10^5 cells per well of a 6-well plate and adhered overnight. […] After treatment, cells were trypsinized, stained, and incubated (Cell Staining Buffer SouthernBiotech #0225-01S) with the corresponding antibody for 45-60 min at 4° C. Viability dye was added with each run. NK-92 cells and patient-derived cells were stained similarly. Markers used for experiments included: Thermofisher HLA-E Monoclonal Antibody (3D12HLA-E), Alexa Fluor™ 488, eBioscience™, CD274 (PD-L1, B7-H1) Monoclonal Antibody (MIH1), eFluor™ 450, eBioscience™, Cell Signaling PD-1 (D4W2J) XPR Rabbit mAb, SYTOX™ Orange Dead Cell Stain, for flow cytometry, BioLegend APC anti-human CD159a (NKG2A) Antibody #375108, BioLegend APC anti-human CD69 Antibody #310909, BioLegend Alexa Fluor® 647 anti-human CD137 (4-1BB) [4B4-1] #309823. For staining of the patient-derived PBMCs and subsequent NK cell characterization, the following antibodies were used: BioLegend Anti-Perforin Mouse Monoclonal Antibody (PerCP Cy5.50, clone: dG9) #308113, BioLegend Anti-Granzyme B Mouse Monoclonal Antibody (FITC, clone: GB11) #515403, BioLegend Anti-CD56 Mouse Monoclonal Antibody (Alexa Fluor® 700, clone: 5.1H1) #362521, and BioLegend (PE anti-human CD45 Antibody) #304008.
(§3) The effect of androgen pathway inhibitors in the expression of HLA-E, a negative and key negative modulator of NK cell function, was also performed using Flow Cytometry. PD-L1 expression levels were also measured. In advance, The NK cell immune checkpoint inhibitor monalizumab (targeting NKG2A and its ligand, HLA-E) was also combined with ARi.

NK-92 cells = assay: Cytokine secretion of NK-92 monoculture (Luminex 200); assay type: cell-based; settings: for NK-92 secretion of T cell chemokine CCL5: FIG. 13A (A6); for NK-92 cell secretion of IFN-γ / NK-92 cell secretion of IL-10 / NK-92 cell secretion of granzyme B: monoculture, DHT for 72 h before treatment, supernatant
Protocol: The secretion profile was assessed in monoculture conditions without the PCa cell lines.
The medium was collected 24 hours after treatment and stored at −80° C. until readout. Samples were shipped to Brown University to run them in biological duplicate on a Luminex 200 Instrument (R&D LX200-XPON-RUO), which captures cytokines on magnetic antibody-coated beads and measures cytokine levels using a system based on the principles of flow cytometry (see https:/www.luminexcorp.com/luminex-100200/#overviewfor more information). A custom […] panel was split into 34-plex and 18-plex assays (R&D LXSAHM) and was run on the Luminex 200 instrument according to the manufacturer's protocol.

LNCaP cells = assay: Flow cytometry of HLA-E / PD-L1 surface expression on LNCaP; assay type: cell-based; settings: 48 h; for HLA-E surface expression / PD-L1 expression: Example 2, LNCaP; for HLA-E surface expression, mean fluorescence intensity (MFI): LNCaP, enza 15 μM, daro 20 μM
Protocol: as §1, §2, §3

[1] = test system: PC tumors (PC3, 22Rv1 xenograft); assay: NK cell infiltration in subcutaneous PC tumors of treated mice; assay type: in vivo, NCr Nude mice; settings: oral, Daro 50 mg/kg/bid, Enza 30 mg/kg/bid, 4 weeks
Protocol: We conducted cell viability assays to investigate the effect of Enza and Daro on PC cells (LNCap, 22Rv1 [ARv7 mutation], DU145, PC3 [AR-]) and NK-92 cells. We performed co-culture experiments with PC and NK cells in a 1:1 ratio and analyzed immune cell-mediated tumor cell killing (ImageXpress Confocal HT). Cytokine profiling (Luminex 200) of culture supernatants was performed following treatment with ARi−/+ and anti-IFN-γ antibodies. In vivo studies were performed in NCr Nude mice harboring subcutaneous PC tumors treated orally with Daro (50 mg/kg/bid) and Enza (30 mg/kg/bid) for 4 weeks.
In vivo studies were performed in NCr Nude mice harboring subcutaneous PC tumors treated orally with Daro (50 mg/kg/bid) and Enza (30 mg/kg/bid) for 4 weeks.

[2] = test system: PCa cell lines (DU145, 22Rv1, LNCaP, PC3); assay: Western blot of apoptotic and antiapoptotic proteins in PCa cell lines; assay type: cell-based; settings: for expression of Bcl-XL: 22Rv1; for expression of c-IAP2: DU145 cells and LNCaP; for Survivin levels: LNCaP; for expression of MCL-1: any cell lines
Protocol: We investigated the effects of ARi on PCa cells' expression of Bcl-2 proteins and cytokine secretion to assess a possible priming effect of treatment, making these cells susceptible to NK cell killing. Enzalutamide (5, 10, and 15 μM) and darolutamide (10, 20 μM) reduced the expression of the X-linked inhibitor of apoptosis (XIAP) in DU145, 22Rv1, and LNCaP cell lines (FIG. 14A-B). Western Blot analysis of apoptotic and antiapoptotic proteins on the PCa cell lines with darolutamide (10 and 20 μM) and enzalutamide ([…]) for 48 h. Treatment with ARi on the PCa cell lines evidenced changes in both pro and antiapoptotic proteins, irrespective of ARi sensitivity. The changes in protein expression were not similar in the PCa cell lines and cannot explain a single mechanism of tumor cell priming for NK cell killing.
Anti-apoptotic proteins and androgen receptor expression in prostate cancer cell lines and immune cells (NK-92) were examined using a western blot. A total of 1×10^5 cells were plated and incubated in a 6 or 12-well plate ([…] 229111 and 229105) for 24 hours to allow the cells to adhere (tumor cells). Treatment conditions were added after cell adhesion or in conjunction with NK cells when these were analyzed. Cells were harvested and lysed using RIPA buffer containing protease inhibitor (Cell Signaling Technology 9806S) and phosphatase inhibitor (PHOSS-RO Roche 4906845001). Denaturing sample buffer was added, and samples were boiled at 95° C. for 10 minutes and an equal amount of protein lysate (10-20 ug) was electrophoresed through 4-12% SDS-PAGE gels (Invitrogen) and then transferred to PVDF membranes. The membrane was blocked with 5% milk in 1×TTBS and incubated overnight with the appropriate primary antibody (Cell Signaling c-IAP2 58C7 Rabbit mAb #3130; Cell Signaling XIAP Antibody #2042; Cell Signaling Mcl-1 (D2W9E) Rabbit mAb #94296; Cell Signaling Survivin (71G4B7) Rabbit mAb; Cell Signaling Ran Antibody #4462; Cell Signaling PARP 9542T mAb; Cell Signaling Bcl-2 Antibody #2876; Cell Signaling Bcl-xL (54H6) Rabbit mAb; Sigma Aldrich Monoclonal Anti-B-Actin antibody #A5441; Cell Signaling Androgen Receptor (E3S4N) Rabbit mAb (Carboxy-terminal Antigen) #70317). The primary antibody membranes were incubated in the appropriate HRP-conjugated secondary antibody (either mouse, Thermo Scientific #31430, or rabbit, Thermo Scientific #31460) for two hours. The levels of antibody binding were detected using ECL western blotting detection reagent and the Syngene imaging system.

[3] = DU145, 22Rv1, LNCaP, enzalutamide 5, 10, 15 μM, darolutamide 10, 20 μM, 48 h

SMILES | HLA-E surface expression, mean fluorescence intensity (MFI) (22Rv1 cell line) | surface levels of HLA-E (22Rv1 cell line) | surface levels of PD-L1 (22Rv1 cell line) | NK-92 secretion of T cell chemokine CCL5 (NK-92 cells) | NK-92 cell secretion of IFN-γ (NK-92 cells) [pg/mL] | NK-92 cell secretion of IL-10 (NK-92 cells) [pg/mL] | NK-92 cell secretion of granzyme B (NK-92 cells) [pg/mL] | HLA-E surface expression (LNCaP cells) [%] | PD-L1 expression (LNCaP cells) | HLA-E surface expression, mean fluorescence intensity (MFI) (LNCaP cells) | NK cell infiltration in the tumor microenvironment [1] | expression of Bcl-XL [2] | expression of XIAP [2, 3] | expression of c-IAP2 [2] | Survivin levels [2] | expression of XIAP ([2]; PC3) | expression of MCL-1 [2] | further results
CC(O)c1cc(C(=O)N[C@@H](C)Cn2ccc(-c3ccc(C#N)c(Cl)c3)n2)n[nH]1 (some centres unmarked) [darolutamide] | 30.5±2.69×10^3 | did not change significantly | did not change significantly | reduces | 45.6 | 15.24 | 1599 | 0.8 | increase | 39.47±3.39×10^3 | increased | reduced | reduced; also recorded: more pronounced | reduced | decreased | did not change | no significant change | expression of Bcl-XL ([2]; listed as Darolutamide): lower levels; expression of XIAP ([2]; DU145, 22Rv1, LNCaP, enzalutamide 5, 10, 15 μM, darolutamide 10, 20 μM, 48 h, listed as Darolutamide): reduced levels; expression of c-IAP2 ([2]; listed as Darolutamide): reduced levels; Survivin levels ([2]; listed as Darolutamide): lower levels
CNC(=O)c1ccc(N2C(=S)N(c3ccc(C#N)c(C(F)(F)F)c3)C(=O)C2(C)C)cc1F [enzalutamide] | 41.14+7.6×10^3 | did not change significantly | did not change significantly | reduces | 48.88 | 16.6 | 1027 | 1.1 | increase | 37.38±1.7×10^3 | increased | reduced | reduced levels | reduced | decreased | did not change | no significant change | expression of Bcl-XL ([2]; listed as Enzalutamide): lower levels; expression of c-IAP2 ([2]; listed as Enzalutamide): reduced levels; Survivin levels ([2]; listed as Enzalutamide): lower levels
